Reference: US20110028447A1, “INDAZOLE DERIVATIVES” (Pfizer Inc., priority 2008, published 2011)
Read-outs that look alike come from different tables or passages of the source.

Molecular target: human CB1 receptor (Homo sapiens, UniProt P21554)
Experiment: Human CB1 receptor binding, [3H] CP-55,940 displacement on HEK cell membranes
Parameters: expressed in transfected cells; host or cells: HEK cells, doxycycline-induced; membrane preparation
Procedure: The Human CB1 receptor binding affinity and other biological activities of the compounds of this invention are determined by the following procedures. Membrane preparation: Human Embryonic Kidney (HEK) Cells expressing the human CB1 receptor under transcriptional regulation of a tetracycline inducible promoter were grown in Dulbecco's Modified Essential Medium with sodium pyruvate (Invitrogen, Carlsbad, Calif.) containing 10% tetracycline free fetal bovine serum (Clonetech, Mountain View, Calif.) 100 μg/ml hygromycin (Calbiochem, San Diego, Calif.), 5 μg/ml blasticidin (Invitrogen). CB1 receptor expression was induced by addition of 1 μg/ml doxycycline (Calbiochem) and incubation for an additional 24 hours. Cells were released from flasks using Cell Dissociation Buffer (Invitrogen). Cells were pelleted by centrifugation at 500×G for 5 minutes. Membranes were prepared by resuspending cells in ice cold TEE Buffer (25 mM Tris pH 7.4, 5 mM EDTA, 5 mM EGTA, Complete Protease Inhibitor (Roche, Basel, Switzerland)). Cells were lysed with 12 strokes of a dounce homogenizer. Unlysed cells were pelleted by centrifugation at 500×G for 5 minutes. Membranes were pelleted by centrifugation at 25,000×G for 30 minutes. Membranes were resuspended in TEE, dounced 12 strokes, and pelleted a second time at 25,000×G for 30 minutes. Membrane pellet was resuspended in 50 mM Tris pH 7.4, 100 mM NaCl, 3 mM MgCl2, 0.2 mM EGTA, Complete Protease Inhibitor (Roche). Protein concentration was determined using the Micro-BCA Protein Assay Kit (Pierce, Rockford, Ill.) using BSA as a standard. Membranes were quick frozen and stored at −80 degrees Celsius until use.
Binding experiments: 50 μl of test compound was incubated with 50 μl of [^3H] CP-55,940 (Perkin Elmer, Boston, Mass.) (final concentration=[…]) and 150 μl of membrane homogenate (1 μg/well) in polypropylene 96-well plates (Corning, Acton, Mass.). Final reaction conditions were 50 mM Tris pH 7.4, 100 mM NaCl, 3 mM MgCl2, 0.2 mM EGTA, 0.04% BSA. Nonspecific binding was determined by incubation with 50 μM WIN-55, 212-2 (Tocris, Ellisville, Mo.). After incubation at room temperature for 60 minutes reactions were harvested by vacuum filtration through Unifilter GF/B-96 filters (Perkin Elmer) that had been presoaked in assay buffer containing 0.5% BSA (Sigma, St. Louis, Mo.) using a FilterMate Plate Harvester (Perkin Elmer). Filters were rinsed 4 times with 50 mM Tris pH 7.4, 0.025% Tween-20 and dried at 50 degrees Celsius for at least 30 minutes. 40 μl of Microscint-20 (Perkin Elmer) was added per well, and plates were counted using a Top-Count Microplate Scintillation Counter (Perkin Elmer). Binding data were analyzed and EC50 and K, values calculated using Graph Pad Prism 4.0 Software.

Sequence of human CB1 receptor (P21554 whole entry): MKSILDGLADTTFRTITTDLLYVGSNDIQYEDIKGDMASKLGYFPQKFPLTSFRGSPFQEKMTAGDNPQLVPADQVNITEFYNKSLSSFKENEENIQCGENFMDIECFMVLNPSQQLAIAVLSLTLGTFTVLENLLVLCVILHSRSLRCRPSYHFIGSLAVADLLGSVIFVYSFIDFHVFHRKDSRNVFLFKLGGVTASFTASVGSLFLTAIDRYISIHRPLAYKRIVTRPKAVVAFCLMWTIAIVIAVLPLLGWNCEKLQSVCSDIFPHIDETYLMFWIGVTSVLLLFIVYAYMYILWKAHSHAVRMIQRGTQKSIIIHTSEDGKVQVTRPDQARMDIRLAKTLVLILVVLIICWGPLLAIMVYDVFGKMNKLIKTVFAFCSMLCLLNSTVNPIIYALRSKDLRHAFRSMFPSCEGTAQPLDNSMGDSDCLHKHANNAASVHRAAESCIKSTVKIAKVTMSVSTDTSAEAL

CC(C)(C)[C@H](NC(=O)c1nn(Cc2ccc(C#N)cc2)c2cc(F)ccc12)C(=O)NC[C@H](O)CO [Example 298]
Ki (CB1 Ki): 182 nM

CC(C)(C)[C@H](NC(=O)c1nn(Cc2ccc(C#N)cc2)c2cc(F)ccc12)C(=O)NCC(N)=O [Example 301]
Ki (CB1 Ki): 70.3 nM

CN1CCN=C1CNC(=O)[C@@H](NC(=O)c1nn(Cc2ccc(F)cc2)c2ccccc12)C(C)(C)C [Example 304]
Ki (CB1 Ki): 152 nM

COc1cc(CNC(=O)[C@@H](NC(=O)c2nn(Cc3ccc(C#N)cc3)c3ccccc23)C(C)(C)C)on1 [Example 311]
Ki (read-out: CB1 Ki): 147 nM

COc1cc(CNC(=O)[C@@H](NC(=O)c2nn(Cc3ccc(C#N)cc3)c3c(F)cccc23)C(C)(C)C)on1 [Example 312]
Ki (read-out: CB1 Ki): 178 nM

COc1cc(CNC(=O)[C@@H](NC(=O)c2nn(Cc3ccc(C#N)cc3)c3cc(F)ccc23)C(C)(C)C)on1 [Example 313]
Ki (read-out: CB1 Ki): 273 nM

CC(C)(C)[C@H](NC(=O)c1nn(Cc2ccc(F)cc2)c2ccccc12)C(=O)NC[C@@H](O)C(N)=O [Example 314]
Ki (CB1 Ki): 130 nM

CC(C)(C)[C@H](NC(=O)c1nn(Cc2ccc(C#N)cc2)c2ccccc12)C(=O)NCC1CNC(=O)O1 (stereo partly drawn) [Example 316]
Ki (CB1 Ki): 243 nM

CCNC(=O)OC1CCCN(C(=O)[C@@H](NC(=O)c2nn(Cc3ccc(F)cc3)c3ccccc23)C(C)(C)C)C1 (stereo partly drawn) [Example 317]
Ki (read-out: CB1 Ki): 31.1 nM

CC(C)NC(=O)OC1CCCN(C(=O)[C@@H](NC(=O)c2nn(Cc3ccc(F)cc3)c3ccccc23)C(C)(C)C)C1 (stereo partly drawn) [Example 318]
Ki (read-out: CB1 Ki): 68.7 nM

CC(C)(C)[C@H](NC(=O)c1nn(Cc2ccc(F)cc2)c2ccccc12)C(=O)N1CCC[C@@H]1C(N)=O [Example 319]
Ki (CB1 Ki): 45.8 nM

CCOC(=O)C1(F)CCN(C(=O)[C@@H](NC(=O)c2nn(Cc3ccc(F)cc3)c3ccccc23)C(C)(C)C)CC1 [Example 342]
Ki (read-out: CB1 Ki): 20.5 nM

CC(C)(C)[C@H](NC(=O)c1nn(Cc2ccc(F)cc2)c2ccccc12)C(=O)N1CCC(F)(C(N)=O)CC1 [Example 343]
Ki (read-out: CB1 Ki): 216 nM

CC(C)(C)[C@H](NC(=O)c1nn(Cc2ccc(F)cc2)c2ccccc12)C(=O)NCC1CN(C(N)=O)C1 [Example 347]
Ki (read-out: CB1 Ki): 24.4 nM

Cc1cc(O)nc(CNC(=O)[C@@H](NC(=O)c2nn(Cc3ccc(C#N)cc3)c3c(F)cccc23)C(C)(C)C)n1 [Example 349]
Ki (read-out: CB1 Ki): 101 nM

Cc1cc(O)nc(CNC(=O)[C@@H](NC(=O)c2nn(Cc3ccc(C#N)cc3)c3ccccc23)C(C)(C)C)n1 [Example 350]
Ki (read-out: CB1 Ki): 229 nM

CC(C)(C)[C@H](NC(=O)c1nn(Cc2ccc(C#N)cc2)c2ccccc12)C(=O)N1CC(C(N)=O)C1 [Example 351]
Ki (CB1 Ki): 24.3 nM

CC(C)(C)[C@H](NC(=O)c1nn(Cc2ccc(C#N)cc2)c2cc(F)ccc12)C(=O)N1CC(C(N)=O)C1 [Example 353]
Ki (CB1 Ki): 72.8 nM

CC(C)(C)[C@H](NC(=O)c1nn(Cc2ccc(C#N)cc2)c2c(F)cccc12)C(=O)N[C@H]1C[C@H](O)C1 [Example 355]
Ki (CB1 Ki): 52.9 nM

CC(C)(C)[C@H](NC(=O)c1nn(Cc2ccc(C#N)cc2)c2cc(F)ccc12)C(=O)N[C@H]1C[C@H](O)C1 [Example 356]
Ki (CB1 Ki): 32.6 nM

CC(C)(C)[C@H](NC(=O)c1nn(Cc2ccc(C#N)cc2F)c2c(F)c(F)ccc12)C(=O)NCC(N)=O [Example 359]
Ki (CB1 Ki): 47.2 nM

CC(C)(C)[C@H](NC(=O)c1nn(Cc2ccc(C#N)cc2F)c2c(F)c(F)ccc12)C(=O)NC[C@@H](O)CO [Example 360]
Ki (CB1 Ki): 73.5 nM

CC(C)(C)[C@H](NC(=O)c1nn(Cc2ccc(C#N)cc2F)c2c(F)c(F)ccc12)C(=O)NC[C@H](O)CO [Example 361]
Ki (CB1 Ki): 41.6 nM

CC(C)(C)[C@H](NC(=O)c1nn(Cc2ccc(C#N)cc2F)c2c(F)c(F)ccc12)C(=O)NCCS(C)(=O)=O [Example 362]
Ki (CB1 Ki): 125 nM

CC(C)(C)[C@H](NC(=O)c1nn(Cc2ccc(C#N)cc2F)c2c(F)c(F)ccc12)C(=O)NCCS(N)(=O)=O [Example 363]
Ki (CB1 Ki): 57.8 nM

Cc1nnc(CNC(=O)[C@@H](NC(=O)c2nn(Cc3ccc(C#N)cc3F)c3c(F)c(F)ccc23)C(C)(C)C)o1 [Example 364]
Ki (read-out: CB1 Ki): 20.9 nM

CC(C)(C)[C@H](NC(=O)c1nn(Cc2ccc(C#N)cc2F)c2c(F)cccc12)C(=O)NC[C@@H](O)CO [Example 366]
Ki (CB1 Ki): 241 nM

CC(C)(C)[C@H](NC(=O)c1nn(Cc2ccc(C#N)cc2F)c2c(F)cccc12)C(=O)NC[C@H](O)CO [Example 367]
Ki (CB1 Ki): 41.4 nM

CC(C)(C)[C@H](NC(=O)c1nn(Cc2ccc(C#N)cc2F)c2c(F)cccc12)C(=O)NCC(N)=O [Example 369]
Ki (CB1 Ki): 28.1 nM

CC(C)(C)[C@H](NC(=O)c1nn(Cc2ccc(C#N)cc2F)c2c(F)cccc12)C(=O)NCCS(C)(=O)=O [Example 370]
Ki (CB1 Ki): 132 nM

CC(C)(C)[C@H](NC(=O)c1nn(Cc2ccc(C#N)cc2F)c2c(F)cccc12)C(=O)NCCS(N)(=O)=O [Example 371]
Ki (CB1 Ki): 54.8 nM

Cc1nnc(CNC(=O)[C@@H](NC(=O)c2nn(Cc3ccc(C#N)cc3F)c3c(F)cccc23)C(C)(C)C)o1 [Example 372]
Ki (CB1 Ki): 22.6 nM

CC(C)(C)[C@H](NC(=O)c1nn(Cc2ccc(F)cc2)c2ccccc12)C(=O)NCC(=O)NC(CO)CO [Example 377]
Ki (read-out: CB1 Ki): 22.5 nM

CC(C)(C)[C@H](NC(=O)c1nn(Cc2ccc(F)cc2)c2ccccc12)C(=O)NCC(=O)N1C[C@@H](O)[C@H](O)C1 [Example 378]
Ki (read-out: CB1 Ki): 158 nM

CC(C)(C)[C@H](NC(=O)c1nn(Cc2ccc(F)cc2)c2ccccc12)C(=O)NCC(=O)N(CCO)CCO [Example 379]
Ki (read-out: CB1 Ki): > 400 nM

CCOC(=O)[C@H]1C[C@@H](NC(=O)[C@@H](NC(=O)c2nn(Cc3ccc(C#N)cc3)c3ccccc23)C(C)(C)C)C1 [Example 380]
Ki (read-out: CB1 Ki): > 400 nM

CCOC(=O)[C@H]1C[C@@H](NC(=O)[C@@H](NC(=O)c2nn(Cc3ccc(C#N)cc3F)c3ccccc23)C(C)(C)C)C1 [Example 382]
Ki (read-out: CB1 Ki): 238 nM

CC(C)(C)[C@@H](NC(=O)c1nn(Cc2ccc(C#N)cc2)c2ccccc12)C(N)=O [Example 383]
Ki (CB1 Ki): > 400 nM

CC(C)(C)[C@H](NC(=O)c1nn(Cc2ccc(C#N)cc2)c2ccccc12)C(=O)NC[C@H](O)CO [Example 384]
Ki (CB1 Ki): 286 nM

COc1cc(C#N)ccc1Cn1nc(C(=O)N[C@H](C(N)=O)C(C)(C)C)c2ccccc21 [Example 385]
Ki (CB1 Ki): 166 nM

COc1cc(C#N)ccc1Cn1nc(C(=O)N[C@H](C(=O)NCCO)C(C)(C)C)c2ccccc21 [Example 386]
Ki (CB1 Ki): 209 nM

COc1cc(C#N)ccc1Cn1nc(C(=O)N[C@H](C(=O)NC[C@H](O)CO)C(C)(C)C)c2ccccc21 [Example 387]
Ki (CB1 Ki): > 400 nM

COc1cc(C#N)ccc1Cn1nc(C(=O)N[C@H](C(=O)NCC(N)=O)C(C)(C)C)c2ccccc21 [Example 388]
Ki (CB1 Ki): > 400 nM

COc1cc(C#N)ccc1Cn1nc(C(=O)N[C@H](C(=O)NC[C@@H](O)CO)C(C)(C)C)c2ccccc21 [Example 389]
Ki (CB1 Ki): > 400 nM

COc1cc(C#N)ccc1Cn1nc(C(=O)N[C@H](C(=O)NCCS(N)(=O)=O)C(C)(C)C)c2ccccc21 [Example 390]
Ki (CB1 Ki): > 400 nM

COc1cc(C#N)ccc1Cn1nc(C(=O)N[C@H](C(=O)NC(CO)CO)C(C)(C)C)c2ccccc21 [Example 391]
Ki (CB1 Ki): > 400 nM

COc1cc(C#N)ccc1Cn1nc(C(=O)N[C@H](C(=O)NCCS(C)(=O)=O)C(C)(C)C)c2ccccc21 [Example 392]
Ki (CB1 Ki): > 400 nM

COc1cc(C#N)ccc1Cn1nc(C(=O)N[C@H](C(=O)NC2CC2)C(C)(C)C)c2ccccc21 [Example 393]
Ki (CB1 Ki): > 400 nM

COc1cc(C#N)ccc1Cn1nc(C(=O)N[C@@H](C(N)=O)C(C)(C)C)c2ccccc21 [Example 394]
Ki (CB1 Ki): > 400 nM

CC(C)(C)[C@H](NC(=O)c1nn(Cc2ccc(C#N)cc2)c2ccccc12)C(=O)N[C@H]1C[C@@H](C(N)=O)C1 [Example 396]
Ki (CB1 Ki): 239 nM

CC(C)(C)[C@H](NC(=O)c1nn(Cc2ccc(C#N)cc2F)c2ccccc12)C(=O)N[C@H]1C[C@@H](C(N)=O)C1 [Example 397]
Ki (CB1 Ki): 243 nM

COc1cc(C#N)ccc1Cn1nc(C(=O)N[C@H](C(=O)N[C@H]2C[C@@H](C(N)=O)C2)C(C)(C)C)c2ccccc21 [Example 399]
Ki (CB1 Ki): > 400 nM

CC(C)(C)[C@H](NC(=O)c1nn(Cc2ccc(C#N)cc2)c2ccccc12)C(=O)NCC1CCC(=O)N1 (stereo partly drawn) [Example 401]
Ki (CB1 Ki): > 400 nM

CC(C)(C)[C@H](NC(=O)c1nn(Cc2ccc(C#N)cc2)c2c(F)cccc12)C(=O)NCC1CCC(=O)N1 (stereo partly drawn) [Example 402]
Ki (CB1 Ki): 277 nM
